MIC50, MIC90 and MIC data for seven molecules are collected here from ChEMBL document CHEMBL1255286, “In Vitro activity of the new azole isavuconazole (BAL4815) compared with six other antifungal agents against 162 Cryptococcus neoformans isolates from Cuba” (2008).

Assay [1] concerns Cryptococcus neoformans. Nature of the assay: Antimicrobial activity against Cryptococcus neoformans var. grubii clinical isolate by broth microdilution method. In kind it is functional.
Assay [2] has as its system Cryptococcus neoformans. The experiment in a line: Antimicrobial activity against Cryptococcus neoformans var. grubii obtained from AIDS patient by broth microdilution method. Format: functional. (In broth dilution the organism is exposed to a series of concentrations in liquid medium.)
In the next assay the test system is Naganishia albida. The experiment in a line: Antimicrobial activity against Cryptococcus albidus by broth microdilution method. In kind it is functional.
Assay [3] relates to Cryptococcus gattii species complex. Nature of the assay: Antimicrobial activity against Cryptococcus gattii by broth microdilution method. Format: functional, Cryptococcus bacillisporus.
Assay [4] relates to Cryptococcus neoformans. Nature of the assay: Antimicrobial activity against Cryptococcus neoformans var. grubii by broth microdilution method. Format: functional.
Assay [5] has as its system Cryptococcus albidosimilis. The experiment in a line: Antimicrobial activity against Cryptococcus albidosimilis by broth microdilution method. As to conditions: Naganishia albidosimilis. Format: functional.
In assay [6] the test system is Cryptococcus neoformans. Nature of the assay: Antimicrobial activity against Cryptococcus neoformans var. grubii obtained from non-AIDS patient by broth microdilution method. In kind it is functional.

≈ marks a conversion by molar mass, not a printed value.

Consider `C[C@@H]1[C@H](O)[C@@H](C)/C=C/C=C/C=C/C=C/C=C/C=C/C=C/[C@H](O[C@@H]2O[C@H](C)[C@@H](O)[C@H](N)[C@@H]2O)C[C@@H]2O[C@](O)(C[C@@H](O)C[C@@H](O)[C@H](O)CC[C@@H](O)C[C@@H](O)CC(=O)O[C@H]1C)C[C@H](O)[C@H]2C(=O)O` [AMPHOTERICIN B], for which the MIC50 (with Cryptococcus neoformans [1]; against Cryptococcus neoformans [2]; in the assay with Naganishia albida; in assay [3]; against Cryptococcus neoformans [4]; in assay [5]) was 0.25 µg/mL (≈ 0.271 µM) in each case. Also, the MIC90 (as a rule, the lowest concentration that inhibits either 90% of growth or 90% of the strains tested, depending on the study) amounted to 0.25 µg/mL (≈ 0.271 µM) in the assay with Cryptococcus neoformans [1]; 0.25 µg/mL (≈ 0.271 µM) in the assay on Cryptococcus neoformans [2]; 0.5 µg/mL (≈ 0.541 µM) with Naganishia albida; 0.5 µg/mL (≈ 0.541 µM) in assay [3]; 0.5 µg/mL (≈ 0.541 µM) in the assay with Cryptococcus neoformans [4]; 0.5 µg/mL (≈ 0.541 µM) in assay [5].
`OC(Cn1cncn1)(Cn1cncn1)c1ccc(F)cc1F` [FLUCONAZOLE]: the MIC50 (in general, the lowest concentration that inhibits either 50% of growth or 50% of the strains tested, depending on the study) against Cryptococcus neoformans [1] turned out to be 2 µg/mL (≈ 6.53 µM); in the assay on Cryptococcus neoformans [2] it was 2 µg/mL (≈ 6.53 µM); against Naganishia albida, 4 µg/mL (≈ 13.1 µM); in assay [3] it was 4 µg/mL (≈ 13.1 µM); with Cryptococcus neoformans [4], 4 µg/mL (≈ 13.1 µM); in assay [5], 4 µg/mL (≈ 13.1 µM). In addition, the MIC90 in the assay on Cryptococcus neoformans [1] turned out to be 4 µg/mL (≈ 13.1 µM); against Cryptococcus neoformans [2], 2 µg/mL (≈ 6.53 µM); in the assay on Naganishia albida, 8 µg/mL (≈ 26.1 µM); in assay [3] it was 8 µg/mL (≈ 26.1 µM); against Cryptococcus neoformans [4] it was 8 µg/mL (≈ 26.1 µM); in assay [5] it was 8 µg/mL (≈ 26.1 µM).
On to `Nc1nc(=O)[nH]cc1F` [FLUCYTOSINE], for which the MIC50 is 4 µg/mL (≈ 31 µM) with Cryptococcus neoformans [1]; 4 µg/mL (≈ 31 µM) with Cryptococcus neoformans [2]; 4 µg/mL (≈ 31 µM) in the assay on Naganishia albida; 4 µg/mL (≈ 31 µM) in assay [3]; 2 µg/mL (≈ 15.5 µM) against Cryptococcus neoformans [6]; 4 µg/mL (≈ 31 µM) in the assay with Cryptococcus neoformans [4]. Also, in assay [5], the MIC50 came out at 4 µg/mL (≈ 31 µM). Also, the MIC90 in the assay with Cryptococcus neoformans [1] was 8 µg/mL (≈ 62 µM); against Cryptococcus neoformans [2] it was 8 µg/mL (≈ 62 µM); in the assay on Naganishia albida, 8 µg/mL (≈ 62 µM); in assay [3], 8 µg/mL (≈ 62 µM); against Cryptococcus neoformans [6], 4 µg/mL (≈ 31 µM); in the assay on Cryptococcus neoformans [4], 8 µg/mL (≈ 62 µM). In addition, in assay [5], the MIC90 amounted to 8 µg/mL (≈ 62 µM).
For the molecule `C[C@@H](c1nc(-c2ccc(C#N)cc2)cs1)[C@](O)(Cn1cncn1)c1cc(F)ccc1F` [ISAVUCONAZOLE], the MIC50 in the assay on Cryptococcus neoformans [1] came to 0.004 µg/mL (≈ 0.00914 µM); against Cryptococcus neoformans [2] it was 0.008 µg/mL (≈ 0.0183 µM); against Naganishia albida, 0.004 µg/mL (≈ 0.00914 µM); in assay [3], 0.004 µg/mL (≈ 0.00914 µM); against Cryptococcus neoformans [6], 0.008 µg/mL (≈ 0.0183 µM); against Cryptococcus neoformans [4] it was 0.004 µg/mL (≈ 0.00914 µM). The same molecule came in with an MIC50 in assay [5] of 0.004 µg/mL (≈ 0.00914 µM). In addition, the MIC90 was found to be 0.016 µg/mL (≈ 0.0366 µM) in the assay with Cryptococcus neoformans [1]; 0.016 µg/mL (≈ 0.0366 µM) with Cryptococcus neoformans [2]; 0.016 µg/mL (≈ 0.0366 µM) in the assay on Naganishia albida; 0.016 µg/mL (≈ 0.0366 µM) in assay [3]; 0.031 µg/mL (≈ 0.0709 µM) in the assay with Cryptococcus neoformans [6]; 0.016 µg/mL (≈ 0.0366 µM) in the assay with Cryptococcus neoformans [4]. The molecule further had an MIC90 in assay [5] of 0.016 µg/mL (≈ 0.0366 µM).
With `CCC(C)n1ncn(-c2ccc(N3CCN(c4ccc(OCC5COC(Cn6cncn6)(c6ccc(Cl)cc6Cl)O5)cc4)CC3)cc2)c1=O` (stereo not drawn) [ITRACONAZOLE], the MIC50 was determined as 0.031 µg/mL (≈ 0.0439 µM) in the assay with Cryptococcus neoformans [1]; 0.031 µg/mL (≈ 0.0439 µM) in the assay on Cryptococcus neoformans [2]; 0.063 µg/mL (≈ 0.0893 µM) in the assay with Naganishia albida; 0.063 µg/mL (≈ 0.0893 µM) in assay [3]; 0.031 µg/mL (≈ 0.0439 µM) against Cryptococcus neoformans [6]; 0.063 µg/mL (≈ 0.0893 µM) against Cryptococcus neoformans [4]. This molecule also yielded an MIC50 in assay [5] of 0.063 µg/mL (≈ 0.0893 µM). Besides, the MIC90 with Cryptococcus neoformans [1] was determined as 0.25 µg/mL (≈ 0.354 µM); against Cryptococcus neoformans [2] it was 0.125 µg/mL (≈ 0.177 µM); against Naganishia albida it was 0.25 µg/mL (≈ 0.354 µM); in assay [3], 0.25 µg/mL (≈ 0.354 µM); against Cryptococcus neoformans [6], 0.063 µg/mL (≈ 0.0893 µM); in the assay with Cryptococcus neoformans [4], 0.25 µg/mL (≈ 0.354 µM). Further, in assay [5], the MIC90 came to 0.25 µg/mL (≈ 0.354 µM).
Regarding `CC[C@@H]([C@H](C)O)n1ncn(-c2ccc(N3CCN(c4ccc(OC[C@@H]5CO[C@@](Cn6cncn6)(c6ccc(F)cc6F)C5)cc4)CC3)cc2)c1=O` [POSACONAZOLE], the MIC50 in the assay on Cryptococcus neoformans [1] worked out at 0.004 µg/mL (≈ 0.00571 µM); in the assay on Cryptococcus neoformans [2], 0.031 µg/mL (≈ 0.0442 µM); against Naganishia albida, 0.31 µg/mL (≈ 0.442 µM); in assay [3], 0.31 µg/mL (≈ 0.442 µM); against Cryptococcus neoformans [6] it was 0.063 µg/mL (≈ 0.0899 µM); against Cryptococcus neoformans [4] it was 0.31 µg/mL (≈ 0.442 µM). In assay [5], this molecule gave an MIC50 of 0.31 µg/mL (≈ 0.442 µM). Also, the MIC90 in the assay with Cryptococcus neoformans [1] came out at 0.016 µg/mL (≈ 0.0228 µM); in the assay with Cryptococcus neoformans [2], 0.125 µg/mL (≈ 0.178 µM); in the assay with Naganishia albida, 0.63 µg/mL (≈ 0.899 µM); in assay [3], 0.63 µg/mL (≈ 0.899 µM); against Cryptococcus neoformans [6], 0.125 µg/mL (≈ 0.178 µM); in the assay with Cryptococcus neoformans [4] it was 0.63 µg/mL (≈ 0.899 µM). In assay [5], this molecule came in with an MIC90 of 0.63 µg/mL (≈ 0.899 µM). Moreover, the MIC (in the assay with Naganishia albida; in assay [3]; in the assay on Cryptococcus neoformans [4]; in assay [5]) was 0.016 µg/mL (≈ 0.0228 µM) each time.
Turning to `C[C@@H](c1ncncc1F)[C@](O)(Cn1cncn1)c1ccc(F)cc1F` [VORICONAZOLE], the MIC50 in the assay on Cryptococcus neoformans [1] worked out at 0.031 µg/mL (≈ 0.0887 µM); in the assay with Cryptococcus neoformans [2], 0.031 µg/mL (≈ 0.0887 µM); against Naganishia albida, 0.063 µg/mL (≈ 0.18 µM); in assay [3], 0.063 µg/mL (≈ 0.18 µM); with Cryptococcus neoformans [6], 0.063 µg/mL (≈ 0.18 µM); with Cryptococcus neoformans [4], 0.063 µg/mL (≈ 0.18 µM). Moreover, the MIC50 in assay [5] turned out to be 0.063 µg/mL (≈ 0.18 µM). In addition, the MIC90 with Cryptococcus neoformans [1] was 0.125 µg/mL (≈ 0.358 µM); in the assay on Cryptococcus neoformans [2] it was 0.125 µg/mL (≈ 0.358 µM); against Naganishia albida it was 0.25 µg/mL (≈ 0.716 µM); in assay [3], 0.25 µg/mL (≈ 0.716 µM); in the assay with Cryptococcus neoformans [6] it was 0.063 µg/mL (≈ 0.18 µM); against Cryptococcus neoformans [4] it was 0.25 µg/mL (≈ 0.716 µM). Besides, in assay [5], the MIC90 stood at 0.25 µg/mL (≈ 0.716 µM).
